Measurements reported in the supplement of paper PMC8967900.

What was measured:
Assay in all cases: selective drug sensitivity score (sDSS, relative to normal bone marrow) (sDSS (score)); higher = more potent and effective on the cell line relative to normal bone marrow cells
Conditions in all cases: 72 h
LC4-1 = tested on: LC4-1
NALM-6 = tested on: NALM-6
NALM-16 = tested on: NALM-16
RPMI-8402 = tested on: RPMI-8402
COG-LL-402h = tested on: COG-LL-402h
TMD5 = tested on: TMD5
KASUMI-9 = tested on: KASUMI-9
ALL-SIL = tested on: ALL-SIL
MHH-CALL-4 = tested on: MHH-CALL-4
MHH-CALL-3 = tested on: MHH-CALL-3
COG-LL-332h = tested on: COG-LL-332h
COG-LL-355h = tested on: COG-LL-355h
SEM cells = tested on: SEM cells
MHH-CALL-2 = tested on: MHH-CALL-2
P12-ICHIKAWA = tested on: P12-ICHIKAWA
CCRF-HSB2 = tested on: CCRF-HSB2
KARPAS-45 = tested on: KARPAS-45
HAL-01 = tested on: HAL-01
PF-382 = tested on: PF-382
MOLT-14 = tested on: MOLT-14
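Also: ALL cell lines in 384-well plates, five doses spanning 10,000-fold, each plate scaled between vehicle and 100 µmol/L benzalkonium chloride controls, sDSS an adapted area-under-curve metric.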

Structure (SMILES)	selective drug sensitivity score (LC4-1)	selective drug sensitivity score (NALM-6)	selective drug sensitivity score (NALM-16)	selective drug sensitivity score (RPMI-8402)	selective drug sensitivity score (COG-LL-402h)	selective drug sensitivity score (TMD5)	selective drug sensitivity score (KASUMI-9)	selective drug sensitivity score (ALL-SIL)	selective drug sensitivity score (MHH-CALL-4)	selective drug sensitivity score (MHH-CALL-3)	selective drug sensitivity score (COG-LL-332h)	selective drug sensitivity score (COG-LL-355h)	selective drug sensitivity score (SEM cells)	selective drug sensitivity score (MHH-CALL-2)	selective drug sensitivity score (P12-ICHIKAWA)	selective drug sensitivity score (CCRF-HSB2)	selective drug sensitivity score (KARPAS-45)	selective drug sensitivity score (HAL-01)	selective drug sensitivity score (PF-382)	selective drug sensitivity score (MOLT-14)
COc1cc(N2CCN(C)CC2)ccc1Nc1nccc(-c2cn(C)c3cnccc23)n1 [AZ191] (top concentration 10000 nM)	-2.72	-1.72	-3.72	0.18	-0.22	-4.32	1.58	-1.52	1.98	-2.72	-0.02	-0.02	5.58	3.88	-2.22	1.18	0.98	0.88	-1.82	-1.32
CN1CC[C@@H](NC(=O)Nc2ccc(C#N)cc2)C[C@@H]1c1nc2ccccc2[nH]1 [Glasdegib] (top concentration 1000 nM)	0	0	0	0	0	0.3	0	0.8	0	0.7	1	0	0	0	0	0	0	0	0	0
COc1cc(CCc2cc(NC(=O)c3ccc(N4CC(C)NC(C)C4)cc3)n[nH]2)cc(OC)c1 (stereo not given) [AZD4547] (top concentration 1000 nM)	0.66	-0.14	0.56	-0.14	-0.14	-0.14	-0.14	0.56	-0.14	-0.14	-0.04	-0.14	0.36	-0.14	-0.14	-0.14	-0.14	-0.14	-0.14	-0.14
C=CC(=O)Nc1cccc(Oc2nc(Nc3ccc(N4CCN(C)CC4)cc3)nc3ccsc23)c1 [Olmutinib] (top concentration 1000 nM)	-0.02	-0.02	-0.02	-0.02	1.28	-0.02	1.68	-0.02	-0.02	-0.02	-0.02	1.78	-0.02	6.88	-0.02	-0.02	0.28	5.78	-0.02	-0.02
C=CC(=O)Nc1cc(Nc2nccc(-c3cn(C)c4ccccc34)n2)c(OC)cc1N(C)CCN(C)C [Osimertinib] (top concentration 2500 nM)	-0.42	-1.62	-4.42	-0.42	0.78	2.98	3.88	-2.52	-1.12	-4.62	-0.32	2.98	0.58	3.18	-3.02	0.08	-1.92	-0.42	-2.12	0.08
CNC(=O)c1ccc(N2C(=S)N(c3cnc(C#N)c(C(F)(F)F)c3)C(=O)C23CCC3)cc1F [Apalutamide] (top concentration 10000 nM)	0	0	0	0	0.2	0	0	0	0	0	0	0	0	0	0	0	0	0	0	0
O=C(O)CC[C@H]1CC[C@@](c2cc(F)ccc2F)(S(=O)(=O)c2ccc(Cl)cc2)CC1 [MK-0752] (top concentration 1000 nM)	0	0	0	3.2	0	0	0	0	0	0	0	0	0	3.8	0	1	0	3.5	0	0
CC(C)N(CCCNC(=O)Nc1ccc(C(C)(C)C)cc1)C[C@H]1O[C@@H](n2cc(Br)c3c(N)ncnc32)[C@H](O)[C@@H]1O [SGC0946] (top concentration 10000 nM)	-1.02	-0.82	-0.62	1.78	-0.62	3.98	0.28	-0.92	-1.12	-1.12	0.18	1.88	-0.72	2.18	0.08	0.68	3.98	0.68	0.28	-0.02
CCS(=O)(=O)N1CC(CC#N)(n2cc(-c3ncnc4[nH]ccc34)cn2)C1 [Baricitinib] (top concentration 2500 nM)	-1.94	-1.94	-1.94	-1.94	-1.94	-1.94	-1.94	4.66	-1.24	-1.94	0.16	-1.94	-1.94	-1.94	-1.94	-1.94	-1.94	-1.94	-1.94	-1.94
O=C(NOCCO)c1ccc2cncn2c1Nc1ccc(I)cc1F [GDC-0623] (top concentration 2500 nM)	-2.3	3.8	0.1	-3.3	-3.2	-0.7	-0.4	-3.4	-2.1	1.7	-1.8	-0.4	-3.4	0.6	-1.7	0.8	-3.1	3.1	-3.3	-1.6
CCCCC(=O)OCC(=O)[C@]1(O)Cc2c(O)c3c(c(O)c2[C@@H](O[C@H]2C[C@H](NC(=O)C(F)(F)F)[C@H](O)[C@H](C)O2)C1)C(=O)c1c(OC)cccc1C3=O [Valrubicin] (top concentration 5000 nM)	2.98	3.18	-3.22	6.88	13.8	4.18	5.68	-0.72	7.28	16	11.2	2.98	6.58	7.48	8.48	15.6	-2.62	0.38	1.48	12.6
C=CC[C@@H]1/C=C(\C)C[C@H](C)C[C@H](OC)[C@H]2O[C@@](O)(C(=O)C(=O)N3CCCC[C@H]3C(=O)O[C@H](/C(C)=C/[C@@H]3CC[C@@H](O)[C@H](OC)C3)[C@H](C)[C@@H](O)CC1=O)[C@H](C)C[C@@H]2OC [Tacrolimus] (top concentration 10000 nM)	21.1	0.98	12.5	1.38	-0.72	13.5	12.1	1.08	-0.12	33.9	0.18	3.18	7.88	24.6	1.58	3.38	2.18	8.58	0.78	1.38
O=C(O)CCCCC(CCSCc1ccccc1)SCc1ccccc1 (stereo not given) [Devimistat (CPI-613)] (top concentration 10000 nM)	2.1	0	0.4	0	0	0	0	0	0	1	0	2.4	0.6	0.8	0	0.3	0	0	0	0
COc1cc2ncnc(Nc3ccc(F)c(Cl)c3)c2cc1OCCCN1CCOCC1 [Gefitinib] (top concentration 10000 nM)	1.16	-0.44	-3.04	3.96	0.96	-2.14	0.16	3.66	-3.04	-2.94	2.56	0.96	0.66	1.86	0.96	6.16	3.36	-0.14	0.26	1.96
O=C(NCc1ccncc1)C12CC3CC(C1)CC(c1ccc(Cl)cc1)(C3)C2 (top concentration 50000 nM)	0.18	-0.22	-0.72	2.68	0.08	0.68	4.28	2.08	2.78	2.78	2.08	0.48	3.88	4.38	3.68	2.68	3.28	4.28	0.48	1.38
C[C@@H]1CN(C(=O)c2ccc(NC(=O)c3cc(O[C@H](C)c4c(Cl)ccc(F)c4Cl)c(N)nn3)cc2)C[C@H](C)N1 [Ensartinib] (top concentration 1000 nM)	-1.44	-0.44	-2.14	0.06	-2.34	-1.84	0.76	1.06	-2.84	-2.84	2.76	1.86	-0.34	-2.84	-2.54	-0.64	2.36	-2.84	-2.64	-1.74
CCCCCCCCCCCCCCCCCCOP(=O)([O-])OC1CC[N+](C)(C)CC1 [Perifosine] (top concentration 2500 nM)	4.04	-0.36	-0.36	-0.36	4.04	-0.36	-0.36	-0.36	-0.16	-0.36	-0.36	0.64	-0.36	-0.26	-0.36	-0.36	-0.26	-0.26	-0.36	-0.36
CCCCOc1nc(N)c2c(n1)N(Cc1cccc(CN3CCCC3)c1)CC(=O)N2 [Vesatolimod] (top concentration 10000 nM)	-3.52	-3.52	-3.52	-3.52	-3.52	-3.52	-2.92	-3.52	-3.52	-3.52	-3.52	0.28	-3.52	-3.52	-3.52	-3.52	-3.52	-3.52	-3.52	-3.52
